# According to patent US11713470B2, “Targeted gene therapies for pain and other neuro-related disorders” (University of Pittsburgh—Of the Commonwealth System of …, priority 2017, dated 2023):
# “Also recorded” adds a separate entry of the source.
# How the values were obtained:
# [1] = target: T1, PSAM-GlyR (Homo sapiens, UniProt P23415+P36544, L141F); experiment: Patch clamp electrophysiology in spinal cord slices of Tlx3^Cre mice injected with AAV8-Flex-PSAM-GlyR; format: tissue-based, mouse
# T1 construct: plasmid from Addgene (Sternson); host or cells: mouse dorsal horn neurons transduced with Cre-dependent AAV2/8 (Tlx3^Cre, CCK^Cre or Calr^Cre mice)
# Description: FIGS. 6A and 6B. Positive and negative controls for PSAM-GlyR and PSEM^89S. (a) Schematic of PSAM-GlyR construct with GFP reporter used to make AAV8-hSyn-Flex-PSAM-GlyR. Virus was injected into Tlx3^Cre mice for electrophysiological slice recordings. (b) Electrode impaling a GFP^+ cell (also shown as DI, image) in a transverse slice of the dorsal horn from a Tlx3^Cre mouse injected with AAV8-hSyn-Flex-PSAMGlyR virus. […] (e) Control for the specificity of α-BTX-Alexa647. Contralateral dorsal horn lacks staining for α-BTX-Alexa647. Calretinin (green in original); PKCγ. Scale bar=50 μm. Box indicates area of inset. (f) In mice lacking PSAM-GlyR, mechanical allodynia and heat hypersensitivity induced by the carrageenan pain model are not altered by injection of PSEM^89S (30 mg/kg, i.p.) (p>0.999, n=4) (g) Punctate and dynamic allodynia induced by CFA are also not altered by injection of PSEM^89S (p>0.999, n=6). (h) In the mice lacking PSAM-GlyR, punctate and dynamic allodynia induced by the sural-SNI model are not altered by injection of PSEM^89S (30 mg/kg, i.p.) ([…], n=6). Data are mean±standard error of the mean (SEM). ***P<0.001; ns=not significant (i.e. p>0.05)
# Prior to assessing the role of the neurons in somatosensory behavior, the ability of PSAM-GlyR to inhibit excitatory interneurons in the dorsal horn was tested using electrophysiological recordings in spinal cord slices. AAV8-Flex-PSAM-GlyR was injected intraspinally into the dorsal horn of P16 Tlx3^Cre mice. In this mouse line, the recombinase is strictly expressed by excitatory neurons located throughout laminae I-III. Three weeks later, neuronal excitability was measured using patch clamp electrophysiology in spinal cord slices in the presence and absence of PSEM^89S (FIG. 6(a-d)). To identify PSAM-GlyR^+ neurons, we identified cells expressing green fluorescent protein (GFP), which is also encoded by the PSAM-GlyR viral construct (FIG. 6(a,b)). […] We also tested the effect of the ligand PSEM^89S on pain behavior in mice lacking the receptor (FIG. 6(f,h)).
# [2] = test system: mice lacking PSAM-GlyR; experiment: Pain models (carrageenan, CFA, sural-SNI) in mice lacking PSAM-GlyR (ligand-alone control); format: in vivo, mouse; settings: 30 mg/kg i.p.
# Excerpt: Methods. Animals: All animals were kept on a standard 12:12 light/dark cycle in micro-isolator caging racks (Allentown Caging) with food and water provided ad libitum. Mouse strains obtained from Jackson Laboratories include C57Bl/6J (JAX #000664), Calr^Cre (JAX #010774) and CCK^Cre (JAX #012706). Adeno-associated viruses (AAV2/8) used in these experiments: hSyn-Flex-rev-PSAM^L141F-GlyR-IRES-eGFP (7^12 vg/ml) and hSyn-Flex-rev-PSAM^L141F,Y115F-GlyR-IRES-eGFP (1.7^13 vg/ml) were custom made by UNC Vector core based on plasmid material developed by Scott Sternson and provided by Addgene. The hSyn-Flex-rev-PSAM^L141F-GlyR-IRES-eGFP (7^12 vg/ml) was used in all experiments except FIG. 8 (e,f). For these experiments, hSyn-Flex-rev-PSAM^L141F,Y115F-GlyR-IRES-eGFP (1.7^13 vg/ml) was used. Methods including: intra-spinal virus injections, paw withdrawal threshold to von Frey filaments, to cotton swab, Hargreaves, pinprick and acute pain behaviors licking, guarding, flicking are all as previously described (Peirs, C. et al. Dorsal Horn Circuits for Persistent Mechanical Pain. Neuron 87, 797-812 (2015); Seal, R. P. et al. Injury-induced mechanical hypersensitivity requires C-low threshold mechanoreceptors. Nature 462, 651-655, (2009)); For paw withdrawal threshold to pressure: mice were lightly restrained by hand such that their rear legs were allowed to freely hang. Using a Pressure Application Measurement device (Ugo Basile) the hind paw was grasped between the experimenter's forefinger and thumb (with pressure transducer on the thumb), and force was slowly applied to the paw until the mouse struggled or flicked its limb (paw withdrawal threshold, PWT). The final force in grams was recorded. Each mouse was tested on the left and right paw for three trials with a ten-minute inter-trial interval between applications, and the three results averaged for each paw. Injury Models including incision, complete Freund's adjuvant, spared nerve injury tibial and sural models, carrageenan, methylglyoxal and multi-dose streptozotocin are as previously described (Peirs, C. et al. Dorsal Horn Circuits for Persistent Mechanical Pain. Neuron 87, 797-812 (2015); Seal, R. P. et al. Injury-induced mechanical hypersensitivity requires C-low threshold mechanoreceptors. Nature 462, 651-655, (2009); Decosterd, I. and Woolf, C. J. Spared nerve injury: an animal model of persistent peripheral neuropathic pain. Pain 87, 149-158 (2000); Bierhaus, A. et al. Methylglyoxal modification of Nav1.8 facilitates nociceptive neuron firing and causes hyperalgesia in diabetic neuropathy. Nat Med 18, 926-933 (2012); Cavanaugh, D. J. et al. Distinct subsets of unmyelinated primary sensory fibers mediate behavioral responses to noxious thermal and mechanical stimuli. Proc Natl Acad Sci USA 106, 9075-9080, (2009)). Chemogenetic Activation of PSAM-GlyR Receptor: Behavior thresholds were performed as described above in AAV8-hSyn-DIO-PSAM-GlyR-IRES-GFP injected mice. PSEM^89S at 30 mg/kg was injected intraperitoneally 15 minutes prior to testing. Immunohistochemistry was performed as previously described (Peirs, C. et al. Dorsal Horn Circuits for Persistent Mechanical Pain. Neuron 87, 797-812 (2015); Seal, R. P. et al. Injury-induced mechanical hypersensitivity requires C-low threshold mechanoreceptors. Nature 462, 651-655 (2009)). α-bungarotoxin conjugated to Alexa-647 (1:1000; ThermoFisher B35450), α-bungarotoxin conjugated to Alexa-488 (1:1000; ThermoFisher B13422). Imaging: Spinal cord sections were imaged with a confocal laser-scanning microscope (Nikon A1R) and Nikon Elements software using 405-, 488-, 561- and 640 nm excitation laser light. In order to suppress emission crosstalk, the microscope was configured to perform all scanning in sequential mode. Z-series were scanned at 20× magnification with an oil immersion lens and a z-step of 5.0 μm. Quantification and Statistical Analysis: all data are reported as mean±SEM. For acute behaviors, a two-tailed Student's t-test was used. […]
# T1 sequence (P36544+P23415 fused P36544:L141F): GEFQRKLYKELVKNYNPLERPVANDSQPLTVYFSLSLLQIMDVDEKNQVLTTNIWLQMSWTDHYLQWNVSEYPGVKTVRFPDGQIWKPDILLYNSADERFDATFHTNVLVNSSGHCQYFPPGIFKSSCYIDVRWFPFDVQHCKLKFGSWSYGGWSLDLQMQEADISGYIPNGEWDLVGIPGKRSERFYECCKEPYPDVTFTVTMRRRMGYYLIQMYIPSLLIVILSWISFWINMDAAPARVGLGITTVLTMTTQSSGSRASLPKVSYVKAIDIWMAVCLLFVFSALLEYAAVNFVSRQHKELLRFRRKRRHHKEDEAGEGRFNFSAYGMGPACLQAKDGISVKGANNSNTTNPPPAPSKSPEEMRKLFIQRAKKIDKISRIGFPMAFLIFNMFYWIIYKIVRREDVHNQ
smiles,measurement,setting,value
COc1ccc(OC)c(C(=O)NC2CN3CCC2CC3)c1 (stereo not drawn) [PSEM^89S],decrease of membrane potential,"[1]; 30 μM PSEM^89S applied to spinal cord slices, GFP^+ neurons, n=3 cells from 2 mice",−7.3±3.4 mV
same,action potentials generated by current injection,"[1]; 30 μM, GFP^+ cells",completely blocked
same,hyperpolarization on bath application,"[1]; 30 μM, specifically in GFP-expressing cells",sustained hyperpolarization
same,dynamic allodynia induced by the sural-SNI model,[2],not altered
same,punctate allodynia induced by the sural-SNI model,[2],not altered
same,dynamic allodynia induced by CFA,[2]; p>0.999,not altered; also recorded: no effect
same,"heat hypersensitivity, carrageenan pain model",[2]; p>0.999,not altered; also recorded: no effect
same,"mechanical allodynia, carrageenan pain model",[2]; p>0.999,not altered; also recorded: no effect
same,punctate allodynia induced by CFA,[2]; p>0.999,not altered; also recorded: no effect
